Source: publication PMC3594701 (Journal of acquired immune deficiency syndromes (1999), 2011)
Entries after “also recorded” stand apart in the source; their conditions may differ.

Legend:
[1] = IC accumulation: ratio of IC drug to drug in plasma; settings: human, oral, GM IC to Plasma Ratio
[2] = Steady-state plasma pharmacokinetics; format: in vivo, human; settings: for Cmax / concentration at 24 h: human; for Cmax: GM Cmax; for concentration at 24 h: GM Ctrough
[3] = Steady-state intracellular; format: in vivo, human; settings: IC (PBMC); for GM AUC (darunavir, ritonavir) / GM AUC: AUC0–24; for Cmax / concentration at 24 h: human, oral; for Cmax: GM Cmax; for concentration at 24 h: GM Ctrough
[4] = PBMC (intracellular)/plasma, Cmax, group 1, period 3 (day 49): darunavir/ritonavir 800/100 mg once daily, without raltegravir
[5] = PBMC (intracellular)/plasma, Cmax, group 2, period 3 (day 49): darunavir/ritonavir 800/100 mg once daily, without raltegravir
[6] = PBMC (intracellular)/plasma, Ctrough, group 1, period 3 (day 49): darunavir/ritonavir 800/100 mg once daily, without raltegravir
[7] = PBMC (intracellular)/plasma, Ctrough, group 2, period 3 (day 49): darunavir/ritonavir 800/100 mg once daily, without raltegravir
[8] = intracellular (PBMC) / plasma, AUC (darunavir, ritonavir), group 1, period 2 (day 35): darunavir/ritonavir 800/100 mg once daily + raltegravir 400 mg twice daily
[9] = intracellular (PBMC) / plasma, AUC (darunavir, ritonavir), group 2, period 2 (day 35): darunavir/ritonavir 800/100 mg once daily + raltegravir 800 mg once daily
[10] = intracellular (PBMC) / plasma, AUC, group 1, period 3 (day 49): darunavir/ritonavir 800/100 mg once daily, without raltegravir
[11] = intracellular (PBMC) / plasma, AUC, group 2, period 3 (day 49): darunavir/ritonavir 800/100 mg once daily, without raltegravir
[12] = intracellular (PBMC) / plasma, Cmax, group 1, period 2 (day 35): raltegravir 400 mg twice daily + darunavir/ritonavir 800/100 mg once daily
[13] = intracellular (PBMC) / plasma, Cmax, group 2, period 2 (day 35): raltegravir 800 mg once daily + darunavir/ritonavir 800/100 mg once daily
[14] = intracellular (PBMC) / plasma, Ctrough, group 1, period 2 (day 35): raltegravir 400 mg twice daily + darunavir/ritonavir 800/100 mg once daily
[15] = intracellular (PBMC) / plasma, Ctrough, group 2, period 2 (day 35): raltegravir 800 mg once daily + darunavir/ritonavir 800/100 mg once daily
[16] = group 1, period 2 (day 35): raltegravir 400 mg twice daily + darunavir/ritonavir 800/100 mg once daily
[17] = group 1, period 3 (day 49): darunavir/ritonavir 800/100 mg once daily, without raltegravir
[18] = group 2, period 3 (day 49): darunavir/ritonavir 800/100 mg once daily, without raltegravir
[19] = oral, group 1, period 3 (day 49): darunavir/ritonavir 800/100 mg once daily, without raltegravir
[20] = oral, group 2, period 3 (day 49): darunavir/ritonavir 800/100 mg once daily, without raltegravir
[21] = PBMC, group 2, period 2 (day 35): raltegravir 800 mg once daily + darunavir/ritonavir 800/100 mg once daily

In the case of `CC(C)CN(C[C@@H](O)[C@H](Cc1ccccc1)NC(=O)O[C@H]1CO[C@H]2OCC[C@H]21)S(=O)(=O)c1ccc(N)cc1` [Darunavir, darunavir], the Kp [1, 4] is reported as 6.8, the Kp [1, 5] is reported as 4.8 and the Kp [1, 6] is reported as 4.8. The Kp [1, 7] was 4.4, the Kp [1, 8] was 5.3 and the Kp [1, 9] was 5.6. For the same molecule, the Kp [1, 10] was 5.3, the Kp [1, 11] was 4.9 and the Kp [1, 12] was 6.8. For the same molecule, the Kp [1, 13] was 6.3, the Kp [1, 14] was 4.4 and the Kp at 24 h [1, 15] was 4.3.
In the case of `CC(C)c1nc(CN(C)C(=O)N[C@H](C(=O)N[C@@H](Cc2ccccc2)C[C@H](O)[C@H](Cc2ccccc2)NC(=O)OCc2cncs2)C(C)C)cs1` [Ritonavir, ritonavir], the “GM AUC (darunavir, ritonavir)” value ([2]; group 1, period 2 (day 35): darunavir/ritonavir 800/100 mg once daily + raltegravir 400 mg twice daily, AUC0–24) is reported as 4299 ng/h/mL, the “GM AUC (darunavir, ritonavir)” value ([2]; group 1, period 2 (day 35): darunavir/ritonavir 800/100 mg once daily + raltegravir 400 mg twice daily, AUC0–24, listed as ritonavir) is reported as 4299 (3823–5176) ng·h^−1·mL^−1 and the “GM Ctrough” value [2, 16] is reported as 48 ng/mL. The “GM Ctrough” value [2, 17] was 44 ng/mL, the “GM AUC” value ([2]; group 1, period 3 (day 49): darunavir/ritonavir 800/100 mg once daily, without raltegravir, AUC0–24) was 4568 ng/h/mL and the “GM AUC” value ([2]; group 1, period 3 (day 49): darunavir/ritonavir 800/100 mg once daily, without raltegravir, AUC0–24, listed as ritonavir) was 4568 (4070–5427) ng·h^−1·mL^−1. The “GM AUC (darunavir, ritonavir)” value ([2]; group 2, period 2 (day 35): darunavir/ritonavir 800/100 mg once daily + raltegravir 800 mg once daily, AUC0–24) was 4359 ng/h/mL, the “GM AUC (darunavir, ritonavir)” value ([2]; group 2, period 2 (day 35): darunavir/ritonavir 800/100 mg once daily + raltegravir 800 mg once daily, AUC0–24, listed as ritonavir) was 4359 (3816–5443) ng·h^−1·mL^−1 and the “GM Ctrough” value ([2]; group 2, period 2 (day 35): raltegravir 800 mg once daily + darunavir/ritonavir 800/100 mg once daily) was 34 ng/mL. The “GM Ctrough” value [2, 18] was 36 ng/mL, the “GM AUC” value ([2]; group 2, period 3 (day 49): darunavir/ritonavir 800/100 mg once daily, without raltegravir, AUC0–24) was 4516 ng/h/mL and the “GM AUC” value ([2]; group 2, period 3 (day 49): darunavir/ritonavir 800/100 mg once daily, without raltegravir, AUC0–24, listed as ritonavir) was 4516 (3798–5986) ng·h^−1·mL^−1. It also gave a Cmax [2, 16] of 483 ng/mL, a Cmax [2, 19] of 528 ng/mL and a Cmax [2, 20] of 527 ng/mL. The concentration at 24 h [2, 19] was 44 ng/mL, the concentration at 24 h ([2]; oral, group 2, period 2 (day 35): raltegravir 800 mg once daily + darunavir/ritonavir 800/100 mg once daily) was 34 ng/mL and the concentration at 24 h [2, 20] was 36 ng/mL. For the same molecule, the “PK exposure parameters with versus without raltegravir” value ([2]; periods 2 and 3) was “comparable; also recorded: not affected”, the Kp [1, 4] was 13.5 and the Kp [1, 5] was 5.2. It also gave a Kp [1, 6] of 11.7, a Kp [1, 7] of 10.6 and a Kp [1, 8] of 10. For the same molecule, the Kp [1, 9] was 6.9, the Kp [1, 10] was 9.5 and the Kp [1, 11] was 6.5. It also gave a Kp [1, 12] of 13.8, a Kp [1, 13] of 5.7 and a Kp [1, 14] of 12. The Kp at 24 h [1, 15] was 10.1, the “GM AUC (darunavir, ritonavir)” value ([3]; group 1, period 2 (day 35): darunavir/ritonavir 800/100 mg once daily + raltegravir 400 mg twice daily) was 33,789 ng·h^−1·mL^−1 and the “GM Ctrough” value [3, 16] was 458 ng/mL. For the same molecule, the “GM AUC” value [3, 17] was 36,769 ng·h^−1·mL^−1, the “GM AUC (darunavir, ritonavir)” value ([3]; group 2, period 2 (day 35): darunavir/ritonavir 800/100 mg once daily + raltegravir 800 mg once daily) was 28,683 ng·h^−1·mL^−1 and the “GM AUC” value [3, 18] was 27,652 ng·h^−1·mL^−1. The Cmax ([3]; PBMC (intracellular), group 1, period 3 (day 49): darunavir/ritonavir 800/100 mg once daily, without raltegravir) was 4040 ng/mL, the Cmax ([3]; PBMC (intracellular), group 2, period 3 (day 49): darunavir/ritonavir 800/100 mg once daily, without raltegravir) was 2610 ng/mL and the Cmax ([3]; PBMC, group 1, period 2 (day 35): raltegravir 400 mg twice daily + darunavir/ritonavir 800/100 mg once daily) was 3880 ng/mL. The Cmax [3, 21] was 3290 ng/mL, the concentration at 24 h ([3]; PBMC, group 1, period 3 (day 49): darunavir/ritonavir 800/100 mg once daily, without raltegravir) was 478 ng/mL and the concentration at 24 h [3, 21] was 329 ng/mL. The concentration at 24 h ([3]; PBMC, group 2, period 3 (day 49): darunavir/ritonavir 800/100 mg once daily, without raltegravir) was 369 ng/mL.
